Reference: PubChem BioAssay AID1918958 (Molecular Pharmacology Branch, DTP, NCI, 2023)

Tested on: NCI-H196 complex spheroid viability
Experiment: Anticancer human tumor NCI-H196 cell line growth inhibition [LSD1];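 note: spheroids exposed to agents for 7 days before readout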
Settings: for IC50: curve of first compound; for viability, T/C: stronger effect = lower value; active = viability on the fitted dose curve at most 10% of control; inactive = the rest
Summary of the method: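 Complex spheroids of tumor cells with HUVEC and human MSCs, exposed to iadademstat combined with other agents. Each agent tested in half-log steps from near clinical Cmax (else 10 microM top), DMSO ≤0.25%.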

[1] = second compound 0.1 µM, first compound 0.000316 µM
[2] = second compound 0.1 µM, first compound 0.001 µM
[3] = second compound 0.1 µM, first compound 0.00316 µM
[4] = second compound 0.1 µM, first compound 0.01 µM
[5] = second compound 0.1 µM, first compound 0.0316 µM
[6] = second compound 0.1 µM, first compound 0.1 µM
[7] = second compound 0.316 µM, first compound 0.000316 µM
[8] = second compound 0.316 µM, first compound 0.001 µM
[9] = second compound 0.316 µM, first compound 0.00316 µM
[10] = second compound 0.316 µM, first compound 0.01 µM
[11] = second compound 0.316 µM, first compound 0.0316 µM
[12] = second compound 0.316 µM, first compound 0.1 µM
[13] = second compound 1 µM, first compound 0.000316 µM
[14] = second compound 1 µM, first compound 0.001 µM
[15] = second compound 1 µM, first compound 0.00316 µM
[16] = second compound 1 µM, first compound 0.01 µM
[17] = second compound 1 µM, first compound 0.0316 µM
[18] = second compound 1 µM, first compound 0.1 µM
[19] = second compound 3.16 µM, first compound 0.000316 µM
[20] = second compound 3.16 µM, first compound 0.001 µM
[21] = second compound 3.16 µM, first compound 0.00316 µM
[22] = second compound 3.16 µM, first compound 0.01 µM
[23] = second compound 3.16 µM, first compound 0.0316 µM
[24] = second compound 3.16 µM, first compound 0.1 µM
[25] = second compound 10 µM, first compound 0.000316 µM
[26] = second compound 10 µM, first compound 0.001 µM
[27] = second compound 10 µM, first compound 0.00316 µM
[28] = second compound 10 µM, first compound 0.01 µM
[29] = second compound 10 µM, first compound 0.0316 µM
[30] = second compound 10 µM, first compound 0.1 µM
[31] = second compound 0.1 µM, first compound 0.00949 µM
[32] = second compound 0.1 µM, first compound 0.03 µM
[33] = second compound 0.1 µM, first compound 0.0949 µM
[34] = second compound 0.1 µM, first compound 0.3 µM
[35] = second compound 0.1 µM, first compound 0.949 µM
[36] = second compound 0.1 µM, first compound 3 µM
[37] = second compound 0.316 µM, first compound 0.00949 µM
[38] = second compound 0.316 µM, first compound 0.03 µM
[39] = second compound 0.316 µM, first compound 0.0949 µM
[40] = second compound 0.316 µM, first compound 0.3 µM
[41] = second compound 0.316 µM, first compound 0.949 µM
[42] = second compound 0.316 µM, first compound 3 µM
[43] = second compound 1 µM, first compound 0.00949 µM
[44] = second compound 1 µM, first compound 0.03 µM
[45] = second compound 1 µM, first compound 0.0949 µM
[46] = second compound 1 µM, first compound 0.3 µM
[47] = second compound 1 µM, first compound 0.949 µM
[48] = second compound 1 µM, first compound 3 µM
[49] = second compound 3.16 µM, first compound 0.00949 µM
[50] = second compound 3.16 µM, first compound 0.03 µM
[51] = second compound 3.16 µM, first compound 0.0949 µM
[52] = second compound 3.16 µM, first compound 0.3 µM
[53] = second compound 3.16 µM, first compound 0.949 µM
[54] = second compound 3.16 µM, first compound 3 µM
[55] = second compound 10 µM, first compound 0.00949 µM
[56] = second compound 10 µM, first compound 0.03 µM
[57] = second compound 10 µM, first compound 0.0949 µM
[58] = second compound 10 µM, first compound 0.3 µM
[59] = second compound 10 µM, first compound 0.949 µM
[60] = second compound 10 µM, first compound 3 µM

CC(C)CC(NC(=O)C(Cc1ccccc1)NC(=O)c1cnccn1)B(O)O (stereo not given) + NC1CCC(NC2CC2c2ccccc2)CC1
active: viability, T/C [2] 7.65% | viability, T/C [3] 4.44% | viability, T/C [4] 3.35% | viability, T/C [5] 1.92% | viability, T/C [6] 1.52% | viability, T/C [9] 3.34% | viability, T/C [10] 2.71% | viability, T/C [11] 2.22% | viability, T/C [12] 0.68% | viability, T/C [14] 6.67% | viability, T/C [15] 3.82% | viability, T/C [16] 2.43% | viability, T/C [17] 2.03% | viability, T/C [18] 0.58% | viability, T/C [20] 5.93% | viability, T/C [21] 3.18% | viability, T/C [22] 2.05% | viability, T/C [23] 2.04% | viability, T/C [24] 0.46% | viability, T/C [26] 4.35% | viability, T/C [27] 2.41% | viability, T/C [28] 1.45% | viability, T/C [29] 0.95% | viability, T/C [30] 0.47%
inactive: viability, T/C [1] 84.1% | viability, T/C [7] 87.9% | viability, T/C [8] 10.3% | viability, T/C [13] 95.9% | viability, T/C [19] 80.8% | viability, T/C [25] 82.5%
0.529 nM: IC50 (second compound 0.1 µM)
0.555 nM: IC50 (second compound 0.316 µM)
0.511 nM: IC50 (second compound 10 µM)
0.508 nM: IC50 (second compound 3.16 µM)
0.572 nM: IC50 (second compound 1 µM)

CC(C)CC(NC(=O)CNC(=O)c1cc(Cl)ccc1Cl)B1OC(=O)CC(CC(=O)O)(C(=O)O)O1 (stereo not given) + NC1CCC(NC2CC2c2ccccc2)CC1
18.7 nM: IC50 (second compound 1 µM)
19.5 nM: IC50 (second compound 0.316 µM)
active: viability, T/C [6] 8.24% | viability, T/C [12] 8.69% | viability, T/C [24] 9.23% | viability, T/C [30] 6.12%
inactive: viability, T/C [1] 107% | viability, T/C [2] 109% | viability, T/C [3] 102% | viability, T/C [4] 78% | viability, T/C [5] 26.1% | viability, T/C [7] 106% | viability, T/C [8] 106% | viability, T/C [9] 101% | viability, T/C [10] 78.5% | viability, T/C [11] 29.5% | viability, T/C [13] 103% | viability, T/C [14] 105% | viability, T/C [15] 120% | viability, T/C [16] 71.9% | viability, T/C [17] 31.4% | viability, T/C [18] 7.57% | viability, T/C [19] 99.5% | viability, T/C [20] 107% | viability, T/C [21] 102% | viability, T/C [22] 85.8% | viability, T/C [23] 31.9% | viability, T/C [25] 102% | viability, T/C [26] 104% | viability, T/C [27] 105% | viability, T/C [28] 75.7% | viability, T/C [29] 33%
18.6 nM: IC50 (second compound 0.1 µM)
20.1 nM: IC50 (second compound 10 µM)
21.5 nM: IC50 (second compound 3.16 µM)

COc1cc(Nc2ncc3c(n2)-c2ccc(Cl)cc2C(c2c(F)cccc2OC)=NC3)ccc1C(=O)O + NC1CCC(NC2CC2c2ccccc2)CC1
inactive: viability, T/C [3] 94.8% | viability, T/C [4] 107% | viability, T/C [5] 122% | viability, T/C [6] 116% | viability, T/C (second compound 0.1 µM, first compound 0.316 µM) 134% | viability, T/C (second compound 0.1 µM, first compound 1 µM) 121% | viability, T/C [9] 99.2% | viability, T/C [10] 103% | viability, T/C [11] 112% | viability, T/C [12] 131% | viability, T/C (second compound 0.316 µM, first compound 0.316 µM) 123% | viability, T/C (second compound 0.316 µM, first compound 1 µM) 138% | viability, T/C [15] 94.4% | viability, T/C [16] 108% | viability, T/C [17] 102% | viability, T/C [18] 113% | viability, T/C (second compound 1 µM, first compound 0.316 µM) 126% | viability, T/C (second compound 1 µM, first compound 1 µM) 119% | viability, T/C [21] 95.7% | viability, T/C [22] 105% | viability, T/C [23] 110% | viability, T/C [24] 103% | viability, T/C (second compound 3.16 µM, first compound 0.316 µM) 128% | viability, T/C (second compound 3.16 µM, first compound 1 µM) 126% | viability, T/C [27] 92.2% | viability, T/C [28] 107% | viability, T/C [29] 97.6% | viability, T/C [30] 116% | viability, T/C (second compound 10 µM, first compound 0.316 µM) 125% | viability, T/C (second compound 10 µM, first compound 1 µM) 113%
> 1000 nM: IC50 (second compound 0.1 µM) | IC50 (second compound 0.316 µM) | IC50 (second compound 1 µM) | IC50 (second compound 3.16 µM) | IC50 (second compound 10 µM)

Cn1ncnc1C1c2n[nH]c(=O)c3cc(F)cc(c23)NC1c1ccc(F)cc1 (stereo not given) + NC1CCC(NC2CC2c2ccccc2)CC1
> 100 nM: IC50 (second compound 0.1 µM) | IC50 (second compound 0.316 µM) | IC50 (second compound 1 µM) | IC50 (second compound 3.16 µM) | IC50 (second compound 10 µM)
inactive: viability, T/C [1] 93.4% | viability, T/C [2] 110% | viability, T/C [3] 95.6% | viability, T/C [4] 94.8% | viability, T/C [5] 98.5% | viability, T/C [6] 99.6% | viability, T/C [7] 100% | viability, T/C [8] 102% | viability, T/C [9] 101% | viability, T/C [10] 92.8% | viability, T/C [11] 93.9% | viability, T/C [12] 92.5% | viability, T/C [13] 95.5% | viability, T/C [14] 98.4% | viability, T/C [15] 97.4% | viability, T/C [16] 98.1% | viability, T/C [17] 94.3% | viability, T/C [18] 94.4% | viability, T/C [19] 90.7% | viability, T/C [20] 99.8% | viability, T/C [21] 98.3% | viability, T/C [22] 88.8% | viability, T/C [23] 95.9% | viability, T/C [24] 93.9% | viability, T/C [25] 97.2% | viability, T/C [26] 106% | viability, T/C [27] 95.9% | viability, T/C [28] 104% | viability, T/C [29] 94.3% | viability, T/C [30] 91.3%

NS(=O)(=O)OCC1CC(n2ccc3c(NC4CCc5ccccc54)ncnc32)CC1O (stereo not given) + NC1CCC(NC2CC2c2ccccc2)CC1
inactive: viability, T/C [31] 109% | viability, T/C [32] 103% | viability, T/C [33] 79.6% | viability, T/C [34] 89.3% | viability, T/C [35] 84.7% | viability, T/C [36] 71.4% | viability, T/C [37] 108% | viability, T/C [38] 104% | viability, T/C [39] 79.2% | viability, T/C [40] 78% | viability, T/C [41] 78.6% | viability, T/C [42] 72.7% | viability, T/C [43] 103% | viability, T/C [44] 101% | viability, T/C [45] 76.2% | viability, T/C [46] 81.8% | viability, T/C [47] 82.7% | viability, T/C [48] 77.6% | viability, T/C [49] 92.5% | viability, T/C [50] 109% | viability, T/C [51] 77.7% | viability, T/C [52] 80.5% | viability, T/C [53] 76.9% | viability, T/C [54] 71.6% | viability, T/C [55] 102% | viability, T/C [56] 95.4% | viability, T/C [57] 73.6% | viability, T/C [58] 83.6% | viability, T/C [59] 78.3% | viability, T/C [60] 64.7%
> 3000 nM: IC50 (second compound 0.1 µM) | IC50 (second compound 0.316 µM) | IC50 (second compound 1 µM) | IC50 (second compound 3.16 µM) | IC50 (second compound 10 µM)

O=C(C=Cc1cccc(S(=O)(=O)Nc2ccccc2)c1)NO + NC1CCC(NC2CC2c2ccccc2)CC1
158 nM: IC50 (second compound 1 µM)
139 nM: IC50 (second compound 0.316 µM)
145 nM: IC50 (second compound 3.16 µM)
inactive: viability, T/C [31] 99.6% | viability, T/C [32] 103% | viability, T/C [33] 75.4% | viability, T/C [34] 21.1% | viability, T/C [37] 93.9% | viability, T/C [38] 101% | viability, T/C [39] 65.8% | viability, T/C [40] 16.7% | viability, T/C [43] 94.5% | viability, T/C [44] 93.4% | viability, T/C [45] 75.4% | viability, T/C [46] 18.4% | viability, T/C [49] 96.9% | viability, T/C [50] 92.3% | viability, T/C [51] 68.5% | viability, T/C [52] 18.5% | viability, T/C [55] 88.8% | viability, T/C [56] 89.8% | viability, T/C [57] 64.7% | viability, T/C [58] 18.6%
163 nM: IC50 (second compound 0.1 µM)
138 nM: IC50 (second compound 10 µM)
active: viability, T/C [35] 0.51% | viability, T/C [36] 0.44% | viability, T/C [41] 0.24% | viability, T/C [42] 1.63% | viability, T/C [47] 0.31% | viability, T/C [48] 0.36% | viability, T/C [53] 0.41% | viability, T/C [54] 0.27% | viability, T/C [59] 0.76% | viability, T/C [60] 0.84%
